Test results taken from the kinase profiling compilation of Christmann-Franck et al. (2016).

How the values were obtained:
Assay in all cases: KINOMEscan competition binding
Conditions in all cases: compound 10.0 µM
BMPR1B (human) = BMPR1B (human) (UniProt O00238)
CAMK1D (human) = CAMK1D (human) (UniProt Q8IU85)
CAMK2D (human) = CAMK2D (human) (UniProt Q13557)
CAMK2G (human) = CAMK2G (human) (UniProt Q13555)
CAMK4 (human) = CAMK4 (human) (UniProt Q16566)
CAMKK2 (human) = CAMKK2 (human) (UniProt Q96RR4)
CDK2 (human) = CDK2 (human) (UniProt P24941)
CDK3 (human) = CDK3 (human) (UniProt Q00526)
CDKL5 (human) = CDKL5 (human) (UniProt O76039)
CSNK1A1L (human) = CSNK1A1L (human) (UniProt Q8N752)
DCLK2 (human) = DCLK2 (human) (UniProt Q8N568)
DDR2 (human) = DDR2 (human) (UniProt Q16832)
DYRK2 (human) = DYRK2 (human) (UniProt Q92630)
FER (human) = FER (human) (UniProt P16591)
[1] = test system: FGFR3 (human), P22607 [G697C]
FGR (human) = FGR (human) (UniProt P09769)
Chain of FGR (human) (P09769 whole entry, looked up): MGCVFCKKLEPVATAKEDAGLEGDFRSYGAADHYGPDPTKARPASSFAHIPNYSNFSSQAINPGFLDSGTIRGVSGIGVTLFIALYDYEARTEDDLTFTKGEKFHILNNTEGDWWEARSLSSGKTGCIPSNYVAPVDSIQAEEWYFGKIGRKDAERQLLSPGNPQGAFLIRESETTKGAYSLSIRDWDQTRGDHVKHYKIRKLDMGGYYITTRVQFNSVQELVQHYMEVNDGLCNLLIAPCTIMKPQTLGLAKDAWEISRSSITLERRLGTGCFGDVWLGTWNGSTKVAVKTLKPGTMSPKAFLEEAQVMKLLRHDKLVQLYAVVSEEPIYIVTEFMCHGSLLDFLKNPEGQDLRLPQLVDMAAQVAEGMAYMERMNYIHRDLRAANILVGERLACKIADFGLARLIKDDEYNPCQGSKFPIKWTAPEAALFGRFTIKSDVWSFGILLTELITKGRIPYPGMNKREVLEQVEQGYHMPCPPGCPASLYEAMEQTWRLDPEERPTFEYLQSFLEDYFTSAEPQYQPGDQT

IRAK3 (human) = IRAK3 (human) (UniProt Q9Y616)
Chain of IRAK3 (human) (Q9Y616 whole entry, looked up): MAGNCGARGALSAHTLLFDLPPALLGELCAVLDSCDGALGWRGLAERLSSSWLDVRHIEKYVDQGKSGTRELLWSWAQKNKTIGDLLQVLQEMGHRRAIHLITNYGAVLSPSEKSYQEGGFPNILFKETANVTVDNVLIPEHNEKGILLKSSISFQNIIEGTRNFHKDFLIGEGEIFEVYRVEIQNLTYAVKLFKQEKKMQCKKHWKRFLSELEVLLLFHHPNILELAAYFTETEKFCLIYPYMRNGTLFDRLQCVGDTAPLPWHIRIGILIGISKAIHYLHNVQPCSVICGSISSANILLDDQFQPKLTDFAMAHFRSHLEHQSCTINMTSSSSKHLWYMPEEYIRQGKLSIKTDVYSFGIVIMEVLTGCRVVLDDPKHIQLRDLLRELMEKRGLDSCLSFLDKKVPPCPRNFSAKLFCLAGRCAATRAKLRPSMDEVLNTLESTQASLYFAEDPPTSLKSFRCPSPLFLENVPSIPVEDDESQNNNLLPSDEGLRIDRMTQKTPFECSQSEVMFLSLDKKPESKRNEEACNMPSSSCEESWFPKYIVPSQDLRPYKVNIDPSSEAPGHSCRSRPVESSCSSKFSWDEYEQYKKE

[2] = target: JAK3 JH1 catalytic (human) (UniProt P52333)
LATS2 (human) = LATS2 (human) (UniProt Q9NRM7)
LYN (human) = LYN (human) (UniProt P07948)
MAP3K5 (human) = MAP3K5 (human) (UniProt Q99683)
Chain of MAP3K5 (human) (Q99683 whole entry, looked up): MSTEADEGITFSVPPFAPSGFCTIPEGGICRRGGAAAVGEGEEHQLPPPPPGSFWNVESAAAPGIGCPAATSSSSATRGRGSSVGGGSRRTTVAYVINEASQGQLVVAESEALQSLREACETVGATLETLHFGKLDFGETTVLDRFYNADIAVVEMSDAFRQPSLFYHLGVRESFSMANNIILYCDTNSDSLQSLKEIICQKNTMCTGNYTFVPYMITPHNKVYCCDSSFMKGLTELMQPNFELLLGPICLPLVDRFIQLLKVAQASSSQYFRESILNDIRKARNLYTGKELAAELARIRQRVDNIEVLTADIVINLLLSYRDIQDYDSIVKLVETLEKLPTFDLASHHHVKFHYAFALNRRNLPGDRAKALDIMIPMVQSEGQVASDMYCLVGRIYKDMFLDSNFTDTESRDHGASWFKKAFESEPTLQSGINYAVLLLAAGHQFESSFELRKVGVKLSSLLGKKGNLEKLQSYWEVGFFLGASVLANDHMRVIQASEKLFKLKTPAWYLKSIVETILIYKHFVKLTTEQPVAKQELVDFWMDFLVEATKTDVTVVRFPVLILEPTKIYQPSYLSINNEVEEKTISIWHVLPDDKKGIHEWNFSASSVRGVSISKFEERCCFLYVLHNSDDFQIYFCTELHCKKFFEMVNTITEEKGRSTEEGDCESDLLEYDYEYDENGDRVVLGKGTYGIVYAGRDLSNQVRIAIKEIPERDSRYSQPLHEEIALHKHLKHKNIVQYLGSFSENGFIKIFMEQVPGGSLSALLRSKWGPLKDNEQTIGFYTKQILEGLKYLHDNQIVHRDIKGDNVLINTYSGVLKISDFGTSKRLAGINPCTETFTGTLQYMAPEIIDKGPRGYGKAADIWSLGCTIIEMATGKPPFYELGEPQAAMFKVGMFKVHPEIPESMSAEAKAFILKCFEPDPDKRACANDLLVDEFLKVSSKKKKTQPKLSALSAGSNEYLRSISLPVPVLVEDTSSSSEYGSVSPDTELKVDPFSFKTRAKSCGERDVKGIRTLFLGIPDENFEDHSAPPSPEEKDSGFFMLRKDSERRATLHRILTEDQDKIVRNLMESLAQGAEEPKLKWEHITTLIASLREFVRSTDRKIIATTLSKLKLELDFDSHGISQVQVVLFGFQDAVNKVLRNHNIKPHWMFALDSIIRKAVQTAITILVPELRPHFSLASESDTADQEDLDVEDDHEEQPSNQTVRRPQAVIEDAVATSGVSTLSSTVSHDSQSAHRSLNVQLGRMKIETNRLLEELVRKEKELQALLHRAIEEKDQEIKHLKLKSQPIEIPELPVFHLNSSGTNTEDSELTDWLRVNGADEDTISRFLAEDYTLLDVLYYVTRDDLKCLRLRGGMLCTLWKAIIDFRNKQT

MAP4K2 (human) = MAP4K2 (human) (UniProt Q12851)
MAP4K4 (human) = MAP4K4 (human) (UniProt O95819)
MAPKAPK5 (human) = MAPKAPK5 (human) (UniProt Q8IW41)
Chain of MAPKAPK5 (human) (Q8IW41 whole entry, looked up): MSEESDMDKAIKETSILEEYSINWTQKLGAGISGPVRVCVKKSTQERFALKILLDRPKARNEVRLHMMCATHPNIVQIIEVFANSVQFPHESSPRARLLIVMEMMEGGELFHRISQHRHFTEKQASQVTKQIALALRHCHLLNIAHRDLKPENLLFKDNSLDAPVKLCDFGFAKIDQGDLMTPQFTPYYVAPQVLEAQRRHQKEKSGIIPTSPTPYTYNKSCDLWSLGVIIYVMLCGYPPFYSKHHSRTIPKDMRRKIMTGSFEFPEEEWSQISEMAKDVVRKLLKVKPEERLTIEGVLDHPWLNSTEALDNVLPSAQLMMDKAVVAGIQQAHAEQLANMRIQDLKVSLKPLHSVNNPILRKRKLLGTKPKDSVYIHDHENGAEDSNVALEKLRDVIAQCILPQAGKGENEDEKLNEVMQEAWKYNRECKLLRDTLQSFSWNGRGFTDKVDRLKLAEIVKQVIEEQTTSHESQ

MARK2 (human) = MARK2 (human) (UniProt Q7KZI7)
[3] = test system: MET (human), P08581 [M1250T]
MINK1 (human) = MINK1 (human) (UniProt Q8N4C8)
MYLK4 (human) = MYLK4 (human) (UniProt Q86YV6)
NEK2 (human) = NEK2 (human) (UniProt P51955)
Chain of NEK2 (human) (P51955 whole entry, looked up): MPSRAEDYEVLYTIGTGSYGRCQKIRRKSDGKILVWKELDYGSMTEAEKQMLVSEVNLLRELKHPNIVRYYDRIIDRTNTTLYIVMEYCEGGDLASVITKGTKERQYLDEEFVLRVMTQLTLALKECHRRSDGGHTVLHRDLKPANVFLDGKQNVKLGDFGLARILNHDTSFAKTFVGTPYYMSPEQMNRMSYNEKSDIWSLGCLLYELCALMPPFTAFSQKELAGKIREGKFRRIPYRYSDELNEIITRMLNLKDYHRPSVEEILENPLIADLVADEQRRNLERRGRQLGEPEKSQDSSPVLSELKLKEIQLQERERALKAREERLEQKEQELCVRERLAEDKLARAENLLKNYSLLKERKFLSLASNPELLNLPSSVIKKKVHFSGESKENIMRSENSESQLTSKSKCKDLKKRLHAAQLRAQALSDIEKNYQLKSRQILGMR

NTRK3 (human) = NTRK3 (human) (UniProt Q16288)
PHKG1 (human) = PHKG1 (human) (UniProt Q16816)
PRKD3 (human) = PRKD3 (human) (UniProt O94806)
RIOK3 (human) = RIOK3 (human) (UniProt O14730)
STK17A (human) = STK17A (human) (UniProt Q9UEE5)
STK17B (human) = STK17B (human) (UniProt O94768)
STK32B (human) = STK32B (human) (UniProt Q9NY57)
[4] = target: TYK2 JH2 pseudokinase (human) (UniProt P29597)
TYRO3 (human) = TYRO3 (human) (UniProt Q06418)

Chain of CAMK1D (human) (Q8IU85 whole entry, looked up): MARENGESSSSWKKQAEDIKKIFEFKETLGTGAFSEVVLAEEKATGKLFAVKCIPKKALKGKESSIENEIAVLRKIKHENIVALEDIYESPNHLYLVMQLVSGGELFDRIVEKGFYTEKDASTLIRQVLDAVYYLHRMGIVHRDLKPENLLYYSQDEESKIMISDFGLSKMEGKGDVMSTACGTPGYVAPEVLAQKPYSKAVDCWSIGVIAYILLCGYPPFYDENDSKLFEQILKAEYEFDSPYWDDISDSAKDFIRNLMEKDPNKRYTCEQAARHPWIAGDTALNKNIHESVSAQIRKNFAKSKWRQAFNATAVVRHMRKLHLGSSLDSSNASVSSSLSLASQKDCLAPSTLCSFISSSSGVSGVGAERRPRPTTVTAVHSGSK
Chain of CAMK2G (human) (Q13555 whole entry, looked up): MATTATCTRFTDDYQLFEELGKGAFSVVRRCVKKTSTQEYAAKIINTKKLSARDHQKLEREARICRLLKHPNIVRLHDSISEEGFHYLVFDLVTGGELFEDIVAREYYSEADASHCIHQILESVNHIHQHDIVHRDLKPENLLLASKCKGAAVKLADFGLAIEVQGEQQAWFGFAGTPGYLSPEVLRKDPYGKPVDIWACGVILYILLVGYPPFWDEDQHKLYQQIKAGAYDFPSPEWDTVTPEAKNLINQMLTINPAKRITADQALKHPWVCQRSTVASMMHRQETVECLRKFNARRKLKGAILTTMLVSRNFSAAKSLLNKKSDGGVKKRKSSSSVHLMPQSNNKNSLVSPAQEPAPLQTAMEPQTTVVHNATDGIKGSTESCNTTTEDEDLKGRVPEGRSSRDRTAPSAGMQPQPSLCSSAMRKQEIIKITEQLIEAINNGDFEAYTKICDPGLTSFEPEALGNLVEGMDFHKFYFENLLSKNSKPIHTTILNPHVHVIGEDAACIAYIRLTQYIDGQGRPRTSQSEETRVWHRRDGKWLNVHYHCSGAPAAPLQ
Chain of CAMK4 (human) (Q16566 whole entry, looked up): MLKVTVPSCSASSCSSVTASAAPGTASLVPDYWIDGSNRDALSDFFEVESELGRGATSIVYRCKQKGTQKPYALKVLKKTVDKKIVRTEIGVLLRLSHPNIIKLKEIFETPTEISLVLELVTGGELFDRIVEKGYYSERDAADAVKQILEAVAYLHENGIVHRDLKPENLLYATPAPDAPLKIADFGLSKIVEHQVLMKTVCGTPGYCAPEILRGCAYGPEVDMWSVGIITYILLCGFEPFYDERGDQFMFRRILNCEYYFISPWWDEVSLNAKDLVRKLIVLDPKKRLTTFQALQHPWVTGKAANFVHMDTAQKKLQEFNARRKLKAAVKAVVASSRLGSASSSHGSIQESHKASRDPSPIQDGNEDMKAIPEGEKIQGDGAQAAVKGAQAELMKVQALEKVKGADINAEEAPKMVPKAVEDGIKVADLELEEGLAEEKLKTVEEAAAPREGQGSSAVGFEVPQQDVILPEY

Row | kinase still bound, per cent of control (BMPR1B (human)) | kinase still bound, per cent of control (CAMK1D (human)) | kinase still bound, per cent of control (CAMK2D (human)) | kinase still bound, per cent of control (CAMK2G (human)) | kinase still bound, per cent of control (CAMK4 (human)) | kinase still bound, per cent of control (CAMKK2 (human)) | kinase still bound, per cent of control (CDK2 (human)) | kinase still bound, per cent of control (CDK3 (human)) | kinase still bound, per cent of control (CSNK1A1L (human)) | kinase still bound, per cent of control (DCLK2 (human)) | kinase still bound, per cent of control (DDR2 (human)) | kinase still bound, per cent of control (FER (human)) | kinase still bound, per cent of control [1] | kinase still bound, per cent of control (FGR (human)) | kinase still bound, per cent of control (IRAK3 (human)) | kinase still bound, per cent of control [2] | kinase still bound, per cent of control (LATS2 (human)) | kinase still bound, per cent of control (LYN (human)) | kinase still bound, per cent of control (MAP3K5 (human)) | kinase still bound, per cent of control (MAP4K4 (human)) | Structure (SMILES) | further results
1 | 100% | 100% | 100% | 100% | 100% | 100% | 100% | 100% | 100% | 0.65% | 100% | 100% | 100% | 100% | 100% | 100% | 100% | 100% | 100% | 100% | CCOc1cc(N2CCC(O)CC2)ccc1Nc1ncc2c(n1)N(C)c1ccccc1C(=O)N2C | kinase still bound, per cent of control (CDKL5 (human)): 100%; kinase still bound, per cent of control (DYRK2 (human)): 100%; kinase still bound, per cent of control (MAP4K2 (human)): 100%; kinase still bound, per cent of control (MAPKAPK5 (human)): 100%; kinase still bound, per cent of control (MARK2 (human)): 100%; kinase still bound, per cent of control [3]: 100%; kinase still bound, per cent of control (MINK1 (human)): 100%; kinase still bound, per cent of control (MYLK4 (human)): 100%; kinase still bound, per cent of control (NEK2 (human)): 100%; kinase still bound, per cent of control (NTRK3 (human)): 100%; kinase still bound, per cent of control (PHKG1 (human)): 100%; kinase still bound, per cent of control (PRKD3 (human)): 100%; kinase still bound, per cent of control (RIOK3 (human)): 100%; kinase still bound, per cent of control (STK17A (human)): 100%; kinase still bound, per cent of control (STK17B (human)): 100%; kinase still bound, per cent of control (STK32B (human)): 100%; kinase still bound, per cent of control [4]: 100%; kinase still bound, per cent of control (TYRO3 (human)): 100%
2 | 100% | 100% | 100% | 100% | 100% | 24% | 100% | 100% | 100% | 100% | 100% | 15% | 100% | 100% | 100% | 100% | 100% | 100% | 100% | 100% | COc1cc(C)c(Sc2cnc(NC(=O)c3ccc(CNC(C)C(C)C)cc3)s2)cc1C(=O)N1CCN(C(C)=O)CC1 (stereo not given) | kinase still bound, per cent of control (MAP4K2 (human)): 100%; kinase still bound, per cent of control (MAPKAPK5 (human)): 100%; kinase still bound, per cent of control (MARK2 (human)): 100%; kinase still bound, per cent of control (MINK1 (human)): 100%; kinase still bound, per cent of control (MYLK4 (human)): 100%; kinase still bound, per cent of control (NEK2 (human)): 18%; kinase still bound, per cent of control (NTRK3 (human)): 100%; kinase still bound, per cent of control (PHKG1 (human)): 100%; kinase still bound, per cent of control (PRKD3 (human)): 100%; kinase still bound, per cent of control (RIOK3 (human)): 100%; kinase still bound, per cent of control (STK17A (human)): 100%; kinase still bound, per cent of control (STK17B (human)): 100%; kinase still bound, per cent of control (STK32B (human)): 100%; kinase still bound, per cent of control [4]: 100%; kinase still bound, per cent of control (TYRO3 (human)): 100%
3 | 100% | 100% | 100% | 100% | 13% | 6.5% | 100% | 100% | 21% | 100% | 100% | 0.6% | 100% | 100% | 29% | 100% | 100% | 100% | 100% | 100% | COc1cc(N2CCC(C(N)=O)CC2)ccc1Nc1nc(N)c(Cl)c(Nc2ccccc2S(=O)(=O)C(C)C)n1 | kinase still bound, per cent of control (MAP4K2 (human)): 100%; kinase still bound, per cent of control (MAPKAPK5 (human)): 100%; kinase still bound, per cent of control (MARK2 (human)): 100%; kinase still bound, per cent of control (MINK1 (human)): 100%; kinase still bound, per cent of control (MYLK4 (human)): 100%; kinase still bound, per cent of control (NEK2 (human)): 100%; kinase still bound, per cent of control (NTRK3 (human)): 100%; kinase still bound, per cent of control (PHKG1 (human)): 12%; kinase still bound, per cent of control (PRKD3 (human)): 100%; kinase still bound, per cent of control (RIOK3 (human)): 100%; kinase still bound, per cent of control (STK17A (human)): 100%; kinase still bound, per cent of control (STK17B (human)): 100%; kinase still bound, per cent of control (STK32B (human)): 3.7%; kinase still bound, per cent of control [4]: 100%; kinase still bound, per cent of control (TYRO3 (human)): 100%
4 | 100% | 100% | 100% | 100% | 100% | 100% | 100% | 100% | 100% | 100% | 100% | 4.4% | 8.6% | 1.2% | 100% | 8.8% | 100% | 0.95% | 100% | 7% | COc1ccc(N(C(=O)Oc2cc(C(=O)Nc3cccc(C(F)(F)F)c3)ccc2C)c2ccnc(Nc3ccc(N4CCN(C)CC4)cc3)n2)c(OC)c1 | kinase still bound, per cent of control (MAPKAPK5 (human)): 100%; kinase still bound, per cent of control (MARK2 (human)): 100%; kinase still bound, per cent of control (MYLK4 (human)): 100%; kinase still bound, per cent of control (NEK2 (human)): 100%; kinase still bound, per cent of control (NTRK3 (human)): 13%; kinase still bound, per cent of control (PHKG1 (human)): 100%; kinase still bound, per cent of control (PRKD3 (human)): 100%; kinase still bound, per cent of control (RIOK3 (human)): 100%; kinase still bound, per cent of control (STK17A (human)): 100%; kinase still bound, per cent of control (STK17B (human)): 100%; kinase still bound, per cent of control (STK32B (human)): 100%; kinase still bound, per cent of control (TYRO3 (human)): 100%
